This is an account of results in patent US20230183243A1, “HETEROARYL DERIVATIVES AND PHARMACEUTICAL COMPOSITION COMPRISING SAME AS ACTIVE INGREDIENT” (VORONOI INC., priority 2019, published 2023).

One test concerns MDA-MB-231 cells. Kind of test: Inhibition of proliferation of triple-negative breast cancer cells, CellTiter-Glo. The test is classed as cell-based. The following applies: Homo sapiens, 120 h; MDA-MB-231, cultured for 5 days. The procedure, abridged: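 MDA-MB-231 cells pre-cultured 24 h (5% CO2, 37 °C), then exposed to compound for 5 days at 12 three-fold dilutions, final 10 μM to 0.05 nM. Viability read by CellTiter-Glo luminescence after 10 min at 37 °C; growth inhibition calculated relative to untreated solvent-control cells.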
(In ATP-based viability assays light output follows the ATP content of the culture.)

In the next test the test system is A549. Kind of test: Cell proliferation inhibition, carcinomas other than TNBC. The test is classed as cell-based. Conditions: Homo sapiens. As to the method:
(§1) To check an ability to inhibit the growth of (MDA-MB-231) cells in two triple-negative breast cancer cell lines, a test was performed, as follows. Cells were seeded in 180 μL of a culture broth at a density of 2,000 to 3,000 cells/well in a white clear bottom 96-well plate (Corning) according to the growth ability of each cell, and then cultured for 24 hours under conditions of 5% CO2 and 37° C. Thereafter, the compound was prepared by diluting a 10 mM stock solution three-fold with 100% DMSO at a total of 12 concentrations so that a peak concentration of the compound was in a range of 10 mM to 0.05 μM, and the diluted compound was then diluted in each cell culture medium so that a final concentration of the compound was in a range of 100 μM to 0.5 nM. 20 μL of a diluted solution diluted with a medium was added to the cell solution in which cells were seeded in the 96-well plate on the previous day so that a final concentration of the diluted solution was in a range of 10 μM to 0.05 nM. Each of the cells was cultured for 5 days. To check cell viability, a mixture provided in a CellTiter-Glo® Luminescent Cell Viability Assay Kit (Promega) was added to each of the cultured cell media, and cultured for another 10 minutes under a condition of 37° C. Then, a degree of luminescence (fluorescence) was measured. A degree of inhibition of the cell growth according to the treatment concentration of each of the compounds was calculated based on the fluorescence of the solvent control cells which were not treated with the compound. In this case, the concentration of each of the compounds inhibiting 50% of the cell growth was determined to be a GI50 (nM) value, and calculated using Prism (Version 7.01; GraphPad) software.
(§2) Next, the activities of the Example compounds against various types of carcinomas other than the TNBC were evaluated in a similar manner as described above. In the following table, the following active value range (GI50 (nM)) was used to evaluate cell proliferation inhibitory activity.

Another test relates to BxPC3. The description is as above. The test is classed as cell-based. Conditions: Homo sapiens, BXPC-3. As to the method:
as §1, §2

The test system of the next test is DU145. The description is as above. The class given is cell-based. The following applies: Homo sapiens, DU-145. Here is the method:
as §1, §2

For another test, the system named is HCT116. Described as above. The test is classed as cell-based. The following applies: Homo sapiens, HCT-116. As to the method: as §1, §2
A further test deals with T1, CSNK1E (Homo sapiens, UniProt P49674).
T1 construct: purchased DiscoverX Corp. ScanMAX Kinase panel
Kind of test: ScanMAX Kinase panel (DiscoverX). The class given is binding. Conditions: read-out: % Cont @ 1 μM. Here is the method: (§3) Further, to evaluate the inhibitory activity of the compound according to the present invention against more enzymes, an experiment was performed as follows. Specifically, the enzyme (kinase) selectivity of the compound of Example 64 selected from the Example compounds of the present invention was measured by commissioning DiscoverX Corp., and an experiment was performed using a panel for ScanMAX™ Kinase analysis. In this case, the concentration of a drug treated with the enzyme was set at 1 μM in DMSO, and the percent control (% control) were defined in the same manner as in the following Expression 1.
(§4) (Example compound−Positive control)/(Negative control−Positive control)×100 [Expression 1]
(§5) Wherein the positive control represents a compound having a percent control of 0%, and the negative control represents a compound having a percent control of 100% in DMSO. For the enzyme selectivity of the present invention, the compound was also judged to have activity against the corresponding enzyme when the percent control for each of the enzymes was <35% (i.e., less than 35%).

The target in a further test is T2, DYRK1B (Homo sapiens, UniProt Q9Y463).
T2 construct: purchased DiscoverX Corp. ScanMAX Kinase panel
Description: ScanMAX Kinase panel (DiscoverX). The test is classed as binding. The following applies: read-out: % Cont @ 1 μM. As to the method: as §3, §4, §5

Another test relates to FLT3(ITD). Kind of test: ScanMAX Kinase panel (DiscoverX). The test is classed as binding. Here is the method:
as §3, §4, §5

In the next test the test system is FLT3(ITD, D835V). Description: ScanMAX Kinase panel (DiscoverX). The class given is binding. Here is the method: as §3, §4, §5
The next test addresses T3, GAK (Homo sapiens, UniProt O14976).
T3 construct: purchased DiscoverX Corp. ScanMAX Kinase panel
Kind of test: ScanMAX Kinase panel (DiscoverX). The test is classed as binding. The following applies: read-out: % Cont @ 1 μM. As to the method: as §3, §4, §5

The target in the next test is T4, PKN2 (Homo sapiens, UniProt Q16513).
T4 construct: purchased DiscoverX Corp. ScanMAX Kinase panel
Kind of test: ScanMAX Kinase panel (DiscoverX). The following applies: read-out: % Cont @ 1 μM. The class given is binding. As to the method: as §3, §4, §5

The target of another test is T5, RIOK1 (Homo sapiens, UniProt Q9BRS2).
T5 construct: purchased DiscoverX Corp. ScanMAX Kinase panel
Description: ScanMAX Kinase panel (DiscoverX). The test is classed as binding. The following applies: read-out: % Cont @ 1 μM. Here is the method:
as §3, §4, §5

In test [1] the target is T6, RSK4(Kin.Dom.1-N-terminal) (Homo sapiens, UniProt Q9UK32).
T6 construct: RSK4(Kin.Dom.1); purchased DiscoverX Corp. ScanMAX Kinase panel
Kind of test: ScanMAX Kinase panel (DiscoverX). The class given is binding. As to the method: as §3, §4, §5

Test [2] concerns the target T7, TYK2(JH1domain-catalytic) (Homo sapiens, UniProt P29597).
T7 construct: TYK2(JH1domain-; purchased DiscoverX Corp. (ScanMAX Kinase panel, commissioned)
Kind of test: ScanMAX Kinase panel (DiscoverX). The test is classed as binding. As to the method:
as §3, §4, §5

In test [3] the target is T8, TYK2(JH2domain-pseudokinase) (Homo sapiens, UniProt P29597).
T8 construct: TYK2(JH2domain-; purchased DiscoverX Corp. ScanMAX Kinase panel
Description: ScanMAX Kinase panel (DiscoverX). The class given is binding. As to the method: as §3, §4, §5

A further test concerns the target T9, ULK1 (Homo sapiens, UniProt O75385).
T9 construct: purchased DiscoverX Corp. ScanMAX Kinase panel
Kind of test: ScanMAX Kinase panel (DiscoverX). The test is classed as binding. As to the method: as §3, §4, §5

One may read the GI50 as the concentration at which growth is held to half of that of the control.

Bounds are passed on as bounds.

T6 sequence (Q9UK32 73-330 limits assumed): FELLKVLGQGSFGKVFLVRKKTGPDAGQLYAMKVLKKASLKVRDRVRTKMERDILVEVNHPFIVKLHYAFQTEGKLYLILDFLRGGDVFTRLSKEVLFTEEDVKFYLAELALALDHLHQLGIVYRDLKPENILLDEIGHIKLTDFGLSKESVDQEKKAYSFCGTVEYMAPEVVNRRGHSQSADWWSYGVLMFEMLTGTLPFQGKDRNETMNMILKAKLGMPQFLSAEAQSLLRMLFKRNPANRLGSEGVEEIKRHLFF
T5 sequence (Q9BRS2 whole entry): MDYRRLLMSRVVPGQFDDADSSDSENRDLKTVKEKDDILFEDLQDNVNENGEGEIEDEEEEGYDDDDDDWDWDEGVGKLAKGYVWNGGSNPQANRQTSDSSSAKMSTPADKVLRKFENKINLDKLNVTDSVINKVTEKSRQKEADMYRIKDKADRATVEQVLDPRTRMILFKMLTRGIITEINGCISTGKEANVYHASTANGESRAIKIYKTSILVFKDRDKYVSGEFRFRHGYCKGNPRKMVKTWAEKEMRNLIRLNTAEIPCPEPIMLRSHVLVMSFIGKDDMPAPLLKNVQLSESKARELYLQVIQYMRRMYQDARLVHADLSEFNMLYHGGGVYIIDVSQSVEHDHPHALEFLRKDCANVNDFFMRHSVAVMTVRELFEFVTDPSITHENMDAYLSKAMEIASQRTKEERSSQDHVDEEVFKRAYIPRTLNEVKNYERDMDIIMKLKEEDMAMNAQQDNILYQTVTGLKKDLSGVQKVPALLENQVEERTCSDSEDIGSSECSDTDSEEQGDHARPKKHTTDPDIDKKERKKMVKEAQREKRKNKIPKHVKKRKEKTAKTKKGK
T3 sequence (O14976 whole entry): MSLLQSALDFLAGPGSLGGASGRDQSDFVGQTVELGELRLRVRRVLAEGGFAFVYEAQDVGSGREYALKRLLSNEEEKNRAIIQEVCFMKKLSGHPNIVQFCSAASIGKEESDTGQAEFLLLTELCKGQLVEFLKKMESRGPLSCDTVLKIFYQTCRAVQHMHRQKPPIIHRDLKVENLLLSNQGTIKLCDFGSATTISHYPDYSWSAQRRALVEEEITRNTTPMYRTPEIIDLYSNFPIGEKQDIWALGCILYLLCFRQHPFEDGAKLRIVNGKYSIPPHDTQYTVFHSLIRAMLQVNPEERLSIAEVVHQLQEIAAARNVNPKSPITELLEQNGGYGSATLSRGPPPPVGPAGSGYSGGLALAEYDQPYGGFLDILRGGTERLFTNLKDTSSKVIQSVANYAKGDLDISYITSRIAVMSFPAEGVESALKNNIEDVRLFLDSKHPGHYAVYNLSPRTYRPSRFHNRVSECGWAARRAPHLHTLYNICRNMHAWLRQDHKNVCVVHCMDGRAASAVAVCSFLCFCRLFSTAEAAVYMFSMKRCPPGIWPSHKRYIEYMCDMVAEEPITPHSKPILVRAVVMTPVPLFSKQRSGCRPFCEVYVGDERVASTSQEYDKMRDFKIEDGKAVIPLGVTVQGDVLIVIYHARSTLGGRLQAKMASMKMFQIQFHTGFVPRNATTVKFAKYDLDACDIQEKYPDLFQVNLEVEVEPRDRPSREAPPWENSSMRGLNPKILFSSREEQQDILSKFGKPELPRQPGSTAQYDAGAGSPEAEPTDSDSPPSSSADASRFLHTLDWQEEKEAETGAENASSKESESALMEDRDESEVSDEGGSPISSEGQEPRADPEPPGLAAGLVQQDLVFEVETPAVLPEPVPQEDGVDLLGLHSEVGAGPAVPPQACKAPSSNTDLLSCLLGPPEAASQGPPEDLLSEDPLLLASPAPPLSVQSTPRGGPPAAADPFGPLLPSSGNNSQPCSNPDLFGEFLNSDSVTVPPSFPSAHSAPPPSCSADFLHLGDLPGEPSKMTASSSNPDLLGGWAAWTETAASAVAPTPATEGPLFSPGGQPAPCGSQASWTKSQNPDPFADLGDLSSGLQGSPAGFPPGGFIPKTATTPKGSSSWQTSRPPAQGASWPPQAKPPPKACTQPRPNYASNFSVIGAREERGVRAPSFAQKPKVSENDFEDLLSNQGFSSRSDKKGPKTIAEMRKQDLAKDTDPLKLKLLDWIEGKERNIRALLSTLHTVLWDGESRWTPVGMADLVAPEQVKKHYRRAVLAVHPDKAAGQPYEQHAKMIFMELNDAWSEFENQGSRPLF
T7 sequence (P29597 897-1176 limits assumed): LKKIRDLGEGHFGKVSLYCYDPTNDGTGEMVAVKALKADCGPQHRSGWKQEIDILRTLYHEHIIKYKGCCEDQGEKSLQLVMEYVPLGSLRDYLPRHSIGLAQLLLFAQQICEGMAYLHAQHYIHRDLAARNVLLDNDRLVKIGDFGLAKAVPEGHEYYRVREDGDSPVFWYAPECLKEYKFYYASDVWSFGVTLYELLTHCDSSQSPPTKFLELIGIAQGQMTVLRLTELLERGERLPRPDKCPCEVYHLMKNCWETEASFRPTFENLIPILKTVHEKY
T2 sequence (Q9Y463 whole entry): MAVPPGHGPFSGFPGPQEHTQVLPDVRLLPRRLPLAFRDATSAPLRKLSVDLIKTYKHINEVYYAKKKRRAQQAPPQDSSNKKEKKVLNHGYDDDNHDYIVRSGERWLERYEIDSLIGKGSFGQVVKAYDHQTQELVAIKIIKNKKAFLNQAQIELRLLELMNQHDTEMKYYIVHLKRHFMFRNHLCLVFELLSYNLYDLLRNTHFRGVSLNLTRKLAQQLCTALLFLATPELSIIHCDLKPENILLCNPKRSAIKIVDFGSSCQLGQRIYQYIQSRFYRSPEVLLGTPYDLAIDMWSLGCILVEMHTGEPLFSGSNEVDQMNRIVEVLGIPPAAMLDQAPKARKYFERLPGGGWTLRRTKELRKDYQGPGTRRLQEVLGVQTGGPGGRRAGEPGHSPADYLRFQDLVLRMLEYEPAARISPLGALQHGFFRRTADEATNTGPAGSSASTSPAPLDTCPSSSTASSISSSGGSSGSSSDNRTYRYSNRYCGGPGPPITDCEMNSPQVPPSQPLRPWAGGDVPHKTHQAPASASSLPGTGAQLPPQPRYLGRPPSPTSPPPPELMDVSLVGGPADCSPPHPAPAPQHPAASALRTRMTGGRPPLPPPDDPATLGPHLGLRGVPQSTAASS
T1 sequence (P49674 whole entry): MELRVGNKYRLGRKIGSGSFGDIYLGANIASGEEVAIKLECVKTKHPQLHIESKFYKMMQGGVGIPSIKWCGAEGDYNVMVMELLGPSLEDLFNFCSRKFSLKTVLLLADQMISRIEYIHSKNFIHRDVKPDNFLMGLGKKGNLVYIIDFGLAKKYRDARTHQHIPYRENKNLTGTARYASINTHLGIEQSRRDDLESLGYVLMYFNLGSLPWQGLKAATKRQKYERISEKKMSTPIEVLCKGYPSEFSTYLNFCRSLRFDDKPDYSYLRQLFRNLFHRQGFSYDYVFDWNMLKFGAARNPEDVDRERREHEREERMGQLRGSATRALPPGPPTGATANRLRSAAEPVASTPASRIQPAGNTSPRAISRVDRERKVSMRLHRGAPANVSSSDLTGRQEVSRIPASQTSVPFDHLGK
T8 sequence (P29597 589-875 limits assumed): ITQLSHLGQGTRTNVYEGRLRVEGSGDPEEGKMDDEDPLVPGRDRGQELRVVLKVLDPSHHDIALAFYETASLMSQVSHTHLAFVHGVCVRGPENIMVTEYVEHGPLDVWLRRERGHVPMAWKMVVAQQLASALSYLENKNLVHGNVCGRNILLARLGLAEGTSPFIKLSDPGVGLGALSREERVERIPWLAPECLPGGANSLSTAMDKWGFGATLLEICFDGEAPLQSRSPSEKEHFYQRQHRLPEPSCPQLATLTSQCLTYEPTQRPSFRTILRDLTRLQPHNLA
T9 sequence (O75385 whole entry): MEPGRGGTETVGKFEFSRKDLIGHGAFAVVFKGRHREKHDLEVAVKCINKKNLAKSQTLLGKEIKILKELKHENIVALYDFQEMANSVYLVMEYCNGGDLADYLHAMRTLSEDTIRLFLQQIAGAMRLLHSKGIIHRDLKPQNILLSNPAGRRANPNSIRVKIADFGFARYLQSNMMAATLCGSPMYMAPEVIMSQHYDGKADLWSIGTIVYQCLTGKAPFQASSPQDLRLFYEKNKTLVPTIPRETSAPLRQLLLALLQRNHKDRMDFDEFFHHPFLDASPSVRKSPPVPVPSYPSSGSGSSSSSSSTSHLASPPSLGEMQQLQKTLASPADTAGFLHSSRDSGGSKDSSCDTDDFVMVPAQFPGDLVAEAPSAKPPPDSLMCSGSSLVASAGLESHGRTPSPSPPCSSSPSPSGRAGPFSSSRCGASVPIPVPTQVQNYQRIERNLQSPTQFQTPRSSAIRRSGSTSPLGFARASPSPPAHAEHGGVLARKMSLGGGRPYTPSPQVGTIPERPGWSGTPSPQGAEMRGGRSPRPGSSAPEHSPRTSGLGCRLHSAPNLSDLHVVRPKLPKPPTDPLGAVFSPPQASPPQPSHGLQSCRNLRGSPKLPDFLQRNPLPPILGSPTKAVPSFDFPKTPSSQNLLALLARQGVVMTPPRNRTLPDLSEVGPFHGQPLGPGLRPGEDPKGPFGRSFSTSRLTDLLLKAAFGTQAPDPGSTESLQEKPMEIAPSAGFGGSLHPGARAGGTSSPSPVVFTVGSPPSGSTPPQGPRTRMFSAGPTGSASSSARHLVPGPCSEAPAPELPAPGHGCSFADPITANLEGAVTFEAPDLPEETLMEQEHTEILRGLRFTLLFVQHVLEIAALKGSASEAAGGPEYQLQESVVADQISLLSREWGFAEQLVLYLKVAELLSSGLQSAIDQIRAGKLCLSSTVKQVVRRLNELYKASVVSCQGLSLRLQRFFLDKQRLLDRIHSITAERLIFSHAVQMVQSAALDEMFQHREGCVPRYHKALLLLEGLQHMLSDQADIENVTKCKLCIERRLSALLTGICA

`COc1cc(-c2ccnn2C)ccc1Nc1nc(NC2CCCCC2)c2c(C#N)c[nH]c2n1` [Example 7, 4-(cyclohexylamino)-2-((2-methoxy-4-(1-methyl-1H-pyrazol-5-yl)phenyl)amino)-7H-pyrrolo[2,3-d] pyrimidine-5-carbonitrile]: in the test on MDA-MB-231 cells, the GI50 is below 100 nM.

Consider `COc1cc(N2CCCC2=O)ccc1Nc1cc(NC2CCCCC2)c2c(C#N)c[nH]c2n1` [Example 64, 4-(cyclohexylamino)-6-((2-methoxy-4-(2-oxopyrrolidin-1-yl)phenyl)amino)-1H-pyrrolo[2,3-b] pyridine-3-carbonitrile], for which the GI50 with MDA-MB-231 cells, in the test on A549, in the test on BxPC3, in the test with DU145 and with HCT116 was below 100 nM each time. For the same compound, the remaining binding at 1 µM at CSNK1E is 24%; at DYRK1B it was 28%; on GAK, 4.4%; on PKN2, 28%; on RIOK1 it was 27%. The “% Cont @ 1 μM” value is 17% in the test with FLT3(ITD); 1.2% in the test on FLT3(ITD, D835V); 3.7% in [1]; 1.7% in test [2]; 7.2% in [3]; 3.1% at ULK1.
